Source: patent publication US8129365B2, “Water-soluble, fluorescent compounds for detection of potassium ions” (The Regents of the University of California, priority 2005, dated 2012)
Entries after “also recorded” stand apart in the source; their conditions may differ.

What was measured:
CHO-K1 cells [1] = assay: K^+ efflux in CHO cells measured by TAC-Red fluorescence, fluorescence microscopy; format: cell-based; conditions: 10 μM pre-incubation, epifluorescence microscopy
Protocol: (§1) TAC-Red as an indicator for measurement of K^+ channel function for high-throughput screening applications. CHO-K1 cells (ATCC CCL-61) were cultured in Ham's F12 media supplemented with 10% fetal bovine serum, 100 U/ml penicillin and 100 μg/ml streptomycin at 37° C. in a 5% CO2/95% air atmosphere and used at ˜90% confluence. For measurements using epifluorescence microscopy cells were grown until reaching confluency on 18-mm diameter round glass coverslips. For fluorescence plate reader assays cells were cultured on Costar 96-well black plates with a clear flat bottom and used when just confluent. […]
Fluorescence microscopy: For most experiments cells on coverslips were incubated in 1 ml high K^+ buffer for 2 min prior to experiments. […] The washed cells were immediately placed cell-side down on the slide and fluorescence measured continuously. TAC-Red fluorescence was excited at 545±30 nm and detected through a 610±75 nm filter (570 nm dichroic) using a long working distance 25× air objective lens.
TAC-Red was used as an indicator of extracellular K^+, such that the rate of initial K^+ efflux into a 0 K^+ buffer could be measured. […]

CHO-K1 cells [2] = assay: K^+ efflux measured by TAC-Red fluorescence, plate reader assay; format: cell-based; conditions: 10 μM preincubation
Protocol: as §1
Plate reader assay: Measurements were done using a Fluostar plate reader (BMG LabTechnologies) with syringe pump for automated solution addition. […] The plate was loaded onto plate reader and after 6 s of fluorescence measurement 30 μl of TAC-Red (150 μM) in 0 K^+ buffer was added via syringe pump. TAC-Red fluorescence was excited using an HQ545/30 filter (Chroma) and emitted fluorescence was detected through a HQ585/30 filter.

brain cortex ECS = assay: TAC-Red [K^+]o measurements in brain cortex (spreading depression); format: in vivo, mice; conditions: freshly cut brain slices, 5 min transdural loading with about 50 μM
Protocol: TAC-Red [K^+]o measurements in brain cortex. Wildtype and AQP4 null mice in a CD1 genetic background (30-35 g body weight/age 10-12 weeks) were used (described in Ma et al. Ma et al. J. Clin. Invest. 100, 957-962 (1997)). These mice are phenotypically normal at baseline and have normal brain architecture; however they manifest altered brain swelling in response to cytotoxic and vasogenic forms of edema. Mice were anesthetized with 2,2,2-tribromoethanol (125 mg/kg, intraperitoneal (ip)) and the head was immobilized in a standard mouse stereotactic frame. Body temperature was maintained at 36-37° C. using a heating pad. The skull was exposed by a midline skin incision. A 2.7 mm diameter circular area of the thin, semi-translucent skull bone located 0.5 mm lateral to the midline and 1 mm posterior to the bregma was removed using a microdrill under microscope to expose intact dura with underlying brain. […]
Fluorescence was measured using a 1.6× objective lens (working distance 24 mm, numerical aperture 0.21), and custom filter set for TAC-Red (HQ, Chroma). […] Fluorescence was imaged using a 14-bit 1024×1024 pixel cooled CCD camera (CoolSnap HQ, Photometrics). […]
Image analysis. […] Half-times (t1/2) for the increasing and decreasing phases of TAC-Red fluorescence were determined by exponential regression analysis. […]

[3] = Fluorescence titrations of TAC-Red (spectroscopic analysis); format: physicochemical
Protocol: The TAC-Red compound was subjected to spectroscopic analysis. Fluorescence measurements were carried out by standard procedures using a FluoroMax-3 fluorimeter. Fluorescence titrations were carried out at 540 nm excitation and 574 nm emission wavelengths using aqueous solution containing about 7 μM at pH 7.0 (buffered with 5 mM HEPES) unless titrated with NaOH/HCl to other pH.
Spectra in FIG. 1, Panel b were obtained using balanced KCl/choline Cl to keep ionic strength constant at 300 mM. The titration in FIG. 1, panel c was done by adding indicated NaCl/KCl from concentrated stock solutions. The data in FIG. 1, panel d were obtained at constant ionic strength (300 mM) using NaCl or choline Cl to balance the KCl.

cell viability or growth = assay: Cell viability or growth; format: cell-based
Description: (§2) TAC-Red fluorescence was not sensitive to divalent cations (Ca^++ or Mg^++) or various anions, or to pH in the range 6-8 (FIG. 1, panel e).

[4] = test system: Fisher rat thyroid epithelial cell monolayers; assay: Transport across epithelial cell monolayers; format: in vitro ADME
Description: as §2

Water solubility = format: physicochemical
[5] = Stop-flow measurement of TAC-Red fluorescence response; format: physicochemical; conditions: K^+ increased from 0 to 5 mM
Protocol: The TAC-Red fluorescence response was rapid when K^+ was increased from 0 to 5 mM in a stop-flow measurement (FIG. 1, panel c, inset), with greater than 90% of the fluorescence increase occurring in under 1 ms.

Row | Depth of TAC-Red staining beneath the brain surface (brain cortex ECS) [μm] | Sensitivity of fluorescence to pH ([3]; pH in the range 6-8) | Transport across cell monolayers ([4]; in 6 hours) [%] | Water solubility (Water solubility) | Compound | Effect on K^+ efflux (CHO-K1 cells [1]) | Effect on K^+ efflux (CHO-K1 cells [2]) | Effect of Na^+ on TAC-Red fluorescence vs. K^+ ([3]; 150 mM Na^+ in place of 150 mM choline^+) | Effect of Na^+ on TAC-Red fluorescence ([3]; 50 and 150 mM Na^+) | Sensitivity of fluorescence to divalent cations ([3]; Ca^++ or Mg^++) | TAC-Red fluorescence increase ([3]; K^+ concentration increasing from 0-200 mM, 540 nm excitation, 574 nm emission, pH 7.0) | K^+ sensitivity of fluorescence ([3]; K^+ in the range 0 to >100 mM) | K^+ sensitivity of fluorescence ([3]; K^+ range 0-40 mM expected in the brain ECS) | K^+-to-Na^+ selectivity ratio ([3]; at 50 mM) | Specificity in titrations with monovalent cations ([3]; monovalent cations) | Sensitivity of fluorescence to various anions ([3]; various anions) | Effect on cell viability or growth (cell viability or growth) | Membrane permeability [4] | Share of fluorescence increase occurring in under 1 ms [5]
1 | – | – | – | – | CC(C)[C@@H]1NC(=O)[C@H](C)OC(=O)[C@@H](C(C)C)NC(=O)[C@@H](C(C)C)OC(=O)[C@H](C(C)C)NC(=O)[C@H](C)OC(=O)[C@@H](C(C)C)NC(=O)[C@@H](C(C)C)OC(=O)[C@H](C(C)C)NC(=O)[C@H](C)OC(=O)[C@@H](C(C)C)NC(=O)[C@@H](C(C)C)OC1=O [valinomycin] | increased K^+ efflux | increased K^+ efflux | – | – | – | – | – | – | – | – | – | – | – | –
2 | > 500 | not sensitive | < 1 | water soluble | COCCOc1cc(-c2c3ccc(=[N+](C)C)cc-3oc3cc(N(C)C)ccc23)ccc1N1CCOc2cc(C)ccc2N2CCOCCOCCN(CCOCCOCC2)c2ccc(C)cc2OCC1.[Cl-] [TAC-Red, {6-Dimethylamino-9-[4-(6,7,9,10,12,13,20,21,23,24-decahydro-2,17-dimethyl-5,14-(ethanoxyethanoxyethano)-5H,14H,22H-dibenzo[h,q][1,4,10,16,7,13,19]tetraoxatriazacyclo-heneicosin-22-yl)-3-(2-methoxyethoxy)phenyl]xanthen-3-ylidene}dimethylammonium chloride] | – | – | did not affect | increased slightly | not sensitive | more than 23 fold | highly sensitive | excellent K^+ sensitivity | about 37 | specificity for K^+, Rb^+ and Cs^+ over Na^+ and Li^+ | not sensitive | did not affect | membrane impermeant; also recorded: membrane-impermeable | greater than 90%
